Data: ChEMBL document CHEMBL1201862, “PubChem BioAssay data set” (2004)
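Method: 48-hour compound exposure of cells in 96-well plates, five concentrations, linear interpolation of endpoints. At the GI50, growth is halved.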 The source made the active and inactive calls. Rule as the data show it: active = GI50 up to about 1.1 µM and inactive = higher.

What was measured:
Assay in all cases: growth of human tumour cells (NCI), 48 h
SK-MEL-28 = test system: SK-MEL-28
DU-145 = test system: DU-145
EKVX = test system: EKVX
HL-60 = test system: HL-60
MCF7 = test system: MCF7
CAKI-1 = test system: CAKI-1
786-0 = test system: 786-0
MDA-MB-231 = test system: MDA-MB-231
SF-539 = test system: SF-539
HOP-62 = test system: HOP-62
SR = test system: SR
LOX IMVI = test system: LOX IMVI
NCI/ADR-RES = test system: NCI/ADR-RES
ACHN = test system: ACHN
T47D = test system: T47D
TK-10 = test system: TK-10
PC-3 = test system: PC-3
K562 = test system: K562
SN12C = test system: SN12C
SK-MEL-2 = test system: SK-MEL-2

## N=C(N)N/N=C(\c1ccc(F)cc1)c1ccc(C(F)(F)F)cc1
SK-MEL-28
  GI50: 0.94 µM (active)
DU-145
  GI50: 0.538 µM (active)
EKVX
  GI50: 0.505 µM (active)
HL-60
  GI50: 0.213 µM (active)
MCF7
  GI50: 0.242 µM (active)
CAKI-1
  GI50: 0.451 µM (active)
786-0
  GI50: 0.294 µM (active)
MDA-MB-231
  GI50: 0.33 µM (active)
SF-539
  GI50: 0.27 µM (active)
HOP-62
  GI50: 0.273 µM (active)
SR
  GI50: 0.284 µM (active)
LOX IMVI
  GI50: 0.323 µM (active)
NCI/ADR-RES
  GI50: 0.344 µM (active)
ACHN
  GI50: 0.611 µM (active)
T47D
  GI50: 2.08 µM (inactive)
TK-10
  GI50: 1.66 µM (inactive)
PC-3
  GI50: 0.357 µM (active)
K562
  GI50: 0.132 µM (active)
SN12C
  GI50: 0.64 µM (active)
SK-MEL-2
  GI50: 1.24 µM (inactive)

## COc1ccc(Nc2ccc3ccccc3c2-c2c(O)ccc3ccccc23)cc1
SK-MEL-28
  GI50: 13.1 µM (inactive)
DU-145
  GI50: 17.5 µM (inactive)
EKVX
  GI50: 14.9 µM (inactive)
HL-60
  GI50: 31.1 µM (inactive)
MCF7
  GI50: 11.8 µM (inactive)
CAKI-1
  GI50: 16.1 µM (inactive)
786-0
  GI50: 17.1 µM (inactive)
MDA-MB-231
  GI50: 24.7 µM (inactive)
SF-539
  GI50: 25.7 µM (inactive)
HOP-62
  GI50: 12.6 µM (inactive)
SR
  GI50: 4.93 µM (inactive)
LOX IMVI
  GI50: 17.9 µM (inactive)
NCI/ADR-RES
  GI50: 15.4 µM (inactive)
ACHN
  GI50: 16.2 µM (inactive)
T47D
  GI50: 15.6 µM (inactive)
TK-10
  GI50: 27.7 µM (inactive)
PC-3
  GI50: 15.8 µM (inactive)
K562
  GI50: 7.23 µM (inactive)
SN12C
  GI50: 15.5 µM (inactive)
SK-MEL-2
  GI50: 14.4 µM (inactive)

## CNC(=O)NC(CCCCNC(=O)OCc1ccccc1)C(=O)OCc1ccccc1 (stereo not given)
SK-MEL-28
  GI50: 19.8 µM (inactive)
DU-145
  GI50: > 100 µM (inactive)
EKVX
  GI50: 59.8 µM (inactive)
HL-60
  GI50: 26.2 µM (inactive)
MCF7
  GI50: 53 µM (inactive)
CAKI-1
  GI50: 47.6 µM (inactive)
786-0
  GI50: 80.2 µM (inactive)
MDA-MB-231
  GI50: > 42.9 µM (inactive)
SF-539
  GI50: 30.3 µM (inactive)
HOP-62
  GI50: > 100 µM (inactive)
SR
  GI50: 19.9 µM (inactive)
LOX IMVI
  GI50: 34.3 µM (inactive)
NCI/ADR-RES
  GI50: > 100 µM (inactive)
ACHN
  GI50: 41.9 µM (inactive)
T47D
  GI50: 28.1 µM (inactive)
TK-10
  GI50: 38.3 µM (inactive)
PC-3
  GI50: 45.1 µM (inactive)
K562
  GI50: 31.3 µM (inactive)
SN12C
  GI50: 39.5 µM (inactive)
SK-MEL-2
  GI50: 17.8 µM (inactive)

## COc1cc2c(cc1OC)C(=O)/C(=C/c1ccccc1)C2
SK-MEL-28
  GI50: > 100 µM (inactive)
DU-145
  GI50: > 94.2 µM (inactive)
EKVX
  GI50: > 100 µM (inactive)
HL-60
  GI50: 16.9 µM (inactive)
MCF7
  GI50: > 71.3 µM (inactive)
CAKI-1
  GI50: > 100 µM (inactive)
786-0
  GI50: 90.6 µM (inactive)
MDA-MB-231
  GI50: > 100 µM (inactive)
SF-539
  GI50: 43.6 µM (inactive)
HOP-62
  GI50: 52.5 µM (inactive)
SR
  GI50: 29.4 µM (inactive)
LOX IMVI
  GI50: 86.5 µM (inactive)
NCI/ADR-RES
  GI50: > 66.2 µM (inactive)
ACHN
  GI50: > 100 µM (inactive)
T47D
  GI50: 63.5 µM (inactive)
TK-10
  GI50: > 100 µM (inactive)
PC-3
  GI50: > 58.9 µM (inactive)
K562
  GI50: 11.9 µM (inactive)
SN12C
  GI50: > 100 µM (inactive)
SK-MEL-2
  GI50: > 100 µM (inactive)

## N#C/C(=C\c1ccc(F)cc1)c1nc2ccccc2c(=O)[nH]1
SK-MEL-28
  GI50: > 100 µM (inactive)
DU-145
  GI50: > 100 µM (inactive)
EKVX
  GI50: > 100 µM (inactive)
HL-60
  GI50: > 100 µM (inactive)
MCF7
  GI50: > 100 µM (inactive)
CAKI-1
  GI50: > 100 µM (inactive)
786-0
  GI50: > 100 µM (inactive)
MDA-MB-231
  GI50: 48.3 µM (inactive)
SF-539
  GI50: > 100 µM (inactive)
HOP-62
  GI50: 47 µM (inactive)
SR
  GI50: > 100 µM (inactive)
LOX IMVI
  GI50: > 100 µM (inactive)
NCI/ADR-RES
  GI50: > 100 µM (inactive)
ACHN
  GI50: > 100 µM (inactive)
T47D
  GI50: > 100 µM (inactive)
TK-10
  GI50: > 100 µM (inactive)
PC-3
  GI50: > 100 µM (inactive)
K562
  GI50: > 100 µM (inactive)
SN12C
  GI50: > 100 µM (inactive)
SK-MEL-2
  GI50: > 100 µM (inactive)

## O=c1[nH]nc(-c2ccccc2)n1/N=C\CC/C=N\n1c(-c2ccccc2)n[nH]c1=O
SK-MEL-28
  GI50: 23 µM (inactive)
DU-145
  GI50: > 59.2 µM (inactive)
EKVX
  GI50: 44.3 µM (inactive)
HL-60
  GI50: 29.2 µM (inactive)
MCF7
  GI50: 26.7 µM (inactive)
CAKI-1
  GI50: 49 µM (inactive)
786-0
  GI50: 26.5 µM (inactive)
MDA-MB-231
  GI50: 29.2 µM (inactive)
SF-539
  GI50: 27.4 µM (inactive)
HOP-62
  GI50: > 52.4 µM (inactive)
SR
  GI50: 34 µM (inactive)
LOX IMVI
  GI50: 12.9 µM (inactive)
NCI/ADR-RES
  GI50: 38.5 µM (inactive)
ACHN
  GI50: 36.6 µM (inactive)
T47D
  GI50: 30.8 µM (inactive)
TK-10
  GI50: > 100 µM (inactive)
PC-3
  GI50: 28.1 µM (inactive)
K562
  GI50: 31.1 µM (inactive)
SN12C
  GI50: 20.3 µM (inactive)
SK-MEL-2
  GI50: 20.2 µM (inactive)

## OB(O)c1ccccc1C#Cc1ccccc1B(O)O
SK-MEL-28
  GI50: 35.6 µM (inactive)
DU-145
  GI50: 15.9 µM (inactive)
EKVX
  GI50: 16.9 µM (inactive)
HL-60
  GI50: 21.4 µM (inactive)
MCF7
  GI50: 3.13 µM (inactive)
CAKI-1
  GI50: 3.09 µM (inactive)
786-0
  GI50: 28.4 µM (inactive)
MDA-MB-231
  GI50: 20.8 µM (inactive)
SF-539
  GI50: 18.4 µM (inactive)
HOP-62
  GI50: 23.9 µM (inactive)
SR
  GI50: 19.5 µM (inactive)
LOX IMVI
  GI50: 19 µM (inactive)
NCI/ADR-RES
  GI50: 25.5 µM (inactive)
ACHN
  GI50: 20.7 µM (inactive)
T47D
  GI50: 2.98 µM (inactive)
TK-10
  GI50: 17.1 µM (inactive)
PC-3
  GI50: 22.1 µM (inactive)
K562
  GI50: 38.3 µM (inactive)
SN12C
  GI50: 23.6 µM (inactive)
SK-MEL-2
  GI50: 11.5 µM (inactive)

## Cn1c(-c2cccs2)cc(-c2cccs2)c1-c1ccsc1
SK-MEL-28
  GI50: > 100 µM (inactive)
DU-145
  GI50: > 100 µM (inactive)
EKVX
  GI50: > 100 µM (inactive)
HL-60
  GI50: > 100 µM (inactive)
MCF7
  GI50: 2.03 µM (inactive)
CAKI-1
  GI50: > 100 µM (inactive)
786-0
  GI50: > 100 µM (inactive)
MDA-MB-231
  GI50: > 100 µM (inactive)
SF-539
  GI50: > 100 µM (inactive)
HOP-62
  GI50: 53 µM (inactive)
SR
  GI50: 48.2 µM (inactive)
LOX IMVI
  GI50: > 100 µM (inactive)
NCI/ADR-RES
  GI50: > 100 µM (inactive)
ACHN
  GI50: > 100 µM (inactive)
T47D
  GI50: > 100 µM (inactive)
TK-10
  GI50: > 100 µM (inactive)
PC-3
  GI50: > 100 µM (inactive)
K562
  GI50: > 100 µM (inactive)
SN12C
  GI50: > 100 µM (inactive)
SK-MEL-2
  GI50: 34.1 µM (inactive)

## CC(C)N1CN(c2ccccc2)C2(CCN(CCCC(=O)c3ccc(F)cc3)CC2)C1=O
SK-MEL-28
  GI50: 18.3 µM (inactive)
DU-145
  GI50: 3.18 µM (inactive)
EKVX
  GI50: 12.7 µM (inactive)
HL-60
  GI50: 19.1 µM (inactive)
MCF7
  GI50: 3.88 µM (inactive)
CAKI-1
  GI50: 4.13 µM (inactive)
786-0
  GI50: 6.9 µM (inactive)
MDA-MB-231
  GI50: 9.14 µM (inactive)
SF-539
  GI50: 9.55 µM (inactive)
HOP-62
  GI50: 3.7 µM (inactive)
SR
  GI50: 18.1 µM (inactive)
LOX IMVI
  GI50: 7.1 µM (inactive)
NCI/ADR-RES
  GI50: 5.55 µM (inactive)
ACHN
  GI50: 3.9 µM (inactive)
T47D
  GI50: 6.07 µM (inactive)
TK-10
  GI50: 12.1 µM (inactive)
PC-3
  GI50: 18.9 µM (inactive)
K562
  GI50: 25.6 µM (inactive)
SN12C
  GI50: 4.68 µM (inactive)
SK-MEL-2
  GI50: 14 µM (inactive)
